Structures are written as SMILES. Where a name gives a salt, the structure may show the parent alone. Read-outs that look alike come from different tables or passages of the source. Some results are limits rather than exact numbers.

Test [1] deals with JH2 domain of human Tyk2 (Homo sapiens (Human), UniProt P29597). Kind of test: JH2 Biochemical Assay (TR-FRET probe displacement). In kind it is binding. As to the method:
The inhibitory potency of compounds of the disclosure against the kinase activity of recombinantly generated JH2 domain of human Tyk2 was evaluated in a plate-based assay using a TR-FRET assay platform. Briefly, 2 nM of recombinant JH2 domain [10×His-tagged TYK2 JH2 domain (amino acid 575-876)] was combined with 2 nM probe ((S)-6-amino-9-(2-carboxy-4-((1-(3-(8-methyl-5-(methylamino)-8H-imidazo[4,5-d]thiazolo[5,4-b]pyridin-2-yl)phenyl)ethyl)carbamoyl)phenyl)-3-iminio-5-sulfo-3H-xanthene-4-sulfonate), 0.1 nM Tb-labeled anti-His antibody, and compounds of disclosure for 60 minutes. Compounds are tested at either 10 μM or 1 μM top concentration, 10 points of 3-fold dilution. The TR-FRET signal inversely correlates to the amount of probe displaced by compounds and signal was calculated by taking the ratio of fluorescence at 520 nm and 495 nm. The data was normalized and the percent activity versus log concentration of compound was fitted with a 4-parameter logistic model to generate IC50 curves.
(In general: TR-FRET usually uses a lanthanide donor and a delayed reading to cut background.)

Test [2] has as its target Tyk2 (Homo sapiens (Human), UniProt P29597). Kind of test: pSTAT4 Cell Assay (MSD, NK92 cells). It is filed as cell-based.
Where [3] appears, read: TR-FRET probe displacement, JH2 domain of human Tyk2.
[4] abbreviates: TR-FRET probe displacement, JH2 domain.
The mark [5] stands for this setting: JH2 domain of human Tyk2, TR-FRET probe displacement.

Sequence of Tyk2 (P29597 whole entry, the tested form may be a part): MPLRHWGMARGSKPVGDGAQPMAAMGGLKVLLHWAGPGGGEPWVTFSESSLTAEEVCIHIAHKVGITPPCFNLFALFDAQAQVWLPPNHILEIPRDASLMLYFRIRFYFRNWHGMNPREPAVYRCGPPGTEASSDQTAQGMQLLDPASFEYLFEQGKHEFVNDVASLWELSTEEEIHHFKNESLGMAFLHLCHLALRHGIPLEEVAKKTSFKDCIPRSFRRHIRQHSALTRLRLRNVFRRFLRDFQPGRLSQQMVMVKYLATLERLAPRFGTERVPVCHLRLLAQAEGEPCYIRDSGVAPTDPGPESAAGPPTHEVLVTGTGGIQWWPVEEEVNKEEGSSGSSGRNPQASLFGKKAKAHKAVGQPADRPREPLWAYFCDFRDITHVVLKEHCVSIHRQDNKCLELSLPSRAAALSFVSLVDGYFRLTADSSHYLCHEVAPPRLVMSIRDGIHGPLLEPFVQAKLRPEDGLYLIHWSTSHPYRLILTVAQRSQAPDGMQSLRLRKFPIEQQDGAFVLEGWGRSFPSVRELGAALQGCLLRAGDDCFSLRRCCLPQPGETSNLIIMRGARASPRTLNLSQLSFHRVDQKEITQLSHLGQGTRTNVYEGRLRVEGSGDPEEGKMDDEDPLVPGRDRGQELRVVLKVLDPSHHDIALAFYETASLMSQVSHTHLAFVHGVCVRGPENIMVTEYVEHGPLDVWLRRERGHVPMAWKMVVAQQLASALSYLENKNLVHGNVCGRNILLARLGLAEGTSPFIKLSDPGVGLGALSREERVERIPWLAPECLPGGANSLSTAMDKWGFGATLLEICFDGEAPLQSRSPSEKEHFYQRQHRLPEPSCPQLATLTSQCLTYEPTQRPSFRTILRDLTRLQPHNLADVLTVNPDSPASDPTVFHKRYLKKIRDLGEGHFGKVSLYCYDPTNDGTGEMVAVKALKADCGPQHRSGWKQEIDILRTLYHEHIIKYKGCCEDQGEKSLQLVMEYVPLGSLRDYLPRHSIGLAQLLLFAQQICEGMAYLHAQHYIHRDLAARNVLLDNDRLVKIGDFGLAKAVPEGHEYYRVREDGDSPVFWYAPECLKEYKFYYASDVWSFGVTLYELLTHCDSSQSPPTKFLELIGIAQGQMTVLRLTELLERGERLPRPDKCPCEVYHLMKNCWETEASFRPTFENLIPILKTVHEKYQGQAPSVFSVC
Sequence of JH2 domain of human Tyk2 (P29597 575-876): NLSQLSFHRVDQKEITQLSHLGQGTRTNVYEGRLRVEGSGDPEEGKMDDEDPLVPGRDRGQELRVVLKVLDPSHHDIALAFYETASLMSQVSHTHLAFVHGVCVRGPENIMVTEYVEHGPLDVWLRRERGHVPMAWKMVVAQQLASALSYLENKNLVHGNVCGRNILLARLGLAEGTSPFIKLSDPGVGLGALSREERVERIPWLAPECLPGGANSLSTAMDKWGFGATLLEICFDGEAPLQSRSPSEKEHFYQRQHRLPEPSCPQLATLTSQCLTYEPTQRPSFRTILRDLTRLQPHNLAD

As usually defined, the IC50 is the concentration needed to halve the response being measured. A higher IC50 goes with a need for much substance. Regarding `CC(=O)Nc1cc(Nc2cc(C)nc(C(C)(F)F)n2)c(OC[C@@H](C)OC(C)(C)C)cn1` [Example 321, (R)-N-(5-(2-(tert-butoxy)propoxy)-4-((2-(1,1-difluoroethyl)-6-methylpyrimidin-4-yl)amino)pyridin-2-yl)acetamide], the IC50 is at most 10 nM in test [1] (setting [3]) and 10 to 100 nM in test [2] (MSD). As for `Cc1cc(Nc2cc(NC(N)=O)ncc2-c2ccn(C)n2)nc(C(C)(F)F)n1` [Example 288, 1-(4-((2-(1,1-difluoroethyl)-6-methylpyrimidin-4-yl)amino)-5-(1-methyl-1H-pyrazol-3-yl)pyridin-2-yl)urea], the IC50 in test [1] (setting [3]) and in test [2] (MSD) was at most 10 nM throughout. On to `CC(=O)Nc1cc(Nc2ccnc(C(C)(F)F)n2)c(-c2cnc(N3C[C@@H]4C[C@H]3CO4)cn2)cn1` [Example 870, N-(5-(5-((1S,4S)-2-oxa-5-azabicyclo[2.2.1]heptan-5-yl)pyrazin-2-yl)-4-((2-(1,1-difluoroethyl)pyrimidin-4-yl)amino)pyridin-2-yl)acetamide], for which the IC50 in test [1] (setting [4]) was at most 10 nM; in test [2], 10 to 100 nM. With `C=Cc1cc(Nc2cc(NC(C)=O)ncc2OCCOC)nc(C(C)(F)F)n1` [Example 55, N-(4-((2-(1,1-difluoroethyl)-6-vinylpyrimidin-4-yl)amino)-5-(2-methoxyethoxy)pyridin-2-yl)acetamide], the IC50 in test [1] (setting [3]) and in test [2] (MSD) was at most 10 nM each time. `CC(=O)Nc1cc(Nc2cc(C)nc(C(C)(F)F)n2)c(OCC(C)OC(C)(C)C)cn1` (stereo not drawn) [Example 427, N-(5-(2-(tert-butoxy)propoxy)-4-((2-(1,1-difluoroethyl)-6-methylpyrimidin-4-yl)amino)pyridin-2-yl)acetamide]: the figures for the IC50 in test [1] (setting [5]) and in test [2] (MSD) were at most 10 nM and 10 to 100 nM, respectively. For `CC(=O)Nc1cc(Nc2ccnc(C(C)(F)F)n2)c(-c2ccc3c(n2)OCC(C)(C)O3)cn1` [Example 144, N-(4-((2-(1,1-difluoroethyl)pyrimidin-4-yl)amino)-5-(2,2-dimethyl-2,3-dihydro-[1,4]dioxino[2,3-b]pyridin-6-yl)pyridin-2-yl)acetamide trifluoroacetate], the IC50 in test [1] (setting [3]) and in test [2] (MSD) was at most 10 nM each time. `CCOc1cnc(NC(C)=O)cc1Nc1cc(-c2cnn(C3CCC3)c2)nc(C(C)(F)F)n1` [Example 312, N-(4-((6-(1-cyclobutyl-1H-pyrazol-4-yl)-2-(1,1-difluoroethyl)pyrimidin-4-yl)amino)-5-ethoxypyridin-2-yl)acetamide]: the half-inhibitory concentration (IC50) in test [1] (setting [3]) and in test [2] (MSD) was at most 10 nM each time. For the compound `CC(=O)Nc1cc(Nc2cc(C)nc(C(C)(F)F)n2)c(C)cn1` [Example 41, N-(4-((2-(1,1-difluoroethyl)-6-methylpyrimidin-4-yl)amino)-5-methylpyridin-2-yl)acetamide], the IC50 fell in the range of 10 to 100 nM in test [1] (setting [3]) and 100 to 1000 nM in test [2] (MSD). On to `CC(=O)Nc1cc(Nc2cc(C)nc(C(C)(F)F)n2)c(OCCOC(C)C)cn1` [Example 482, N-(4-((2-(1,1-difluoroethyl)-6-methylpyrimidin-4-yl)amino)-5-(2-isopropoxyethoxy)pyridin-2-yl)acetamide], for which the figures for the IC50 in test [1] (setting [5]) and in test [2] (MSD) were at most 10 nM and 10 to 100 nM, respectively.

Regarding `CC(=O)Nc1cc(Nc2cc(C)nc(C(C)(F)F)n2)c(OCC2(C#N)CC2)cn1` [Example 84, N-(5-((1-cyanocyclopropyl)methoxy)-4-((2-(1,1-difluoroethyl)-6-methylpyrimidin-4-yl)amino)pyridin-2-yl)acetamide], the IC50 in test [1] (setting [3]) is at most 10 nM; in test [2] (MSD), 10 to 100 nM.

Turning to `CC(=O)Nc1cc(Nc2cc(C)nc(C(C)(F)F)n2)c(-c2cc(C)cnn2)cn1` [Example 252, N-(4-((2-(1,1-difluoroethyl)-6-methylpyrimidin-4-yl)amino)-5-(5-methylpyridazin-3-yl)pyridin-2-yl)acetamide], the IC50 in test [1] (setting [3]) and in test [2] (MSD) was at most 10 nM in each case.

On to `CCn1cc(-c2cc(Nc3cc(NC(C)=O)ncc3OC)nc(C(C)(F)F)n2)cn1` [Example 97, N-(4-((2-(1,1-difluoroethyl)-6-(1-ethyl-1H-pyrazol-4-yl)pyrimidin-4-yl)amino)-5-methoxypyridin-2-yl)acetamide], for which the IC50 in test [1] (setting [3]) and in test [2] (MSD) was 10 to 100 nM throughout.

Regarding `CC(=O)Nc1cc(Nc2cc(OC3CC3)nc(C(C)(F)F)n2)c(OCc2ccc(F)c(F)c2)cn1` [Example 349, N-(4-((6-cyclopropoxy-2-(1,1-difluoroethyl)pyrimidin-4-yl)amino)-5-((3,4-difluorobenzyl)oxy)pyridin-2-yl)acetamide], the IC50 in test [1] (setting [3]) and in test [2] (MSD) was at most 10 nM in each case. In the case of `CCOc1cnc(NC(C)=O)cc1Nc1cc(C)cc(C23COC(C2)C3)n1` [Example 95, N-(4-((6-(2-oxabicyclo[2.1.1]hexan-4-yl)-4-methylpyridin-2-yl)amino)-5-ethoxypyridin-2-yl)acetamide], the IC50 is 10 to 100 nM in test [1] (setting [3]) and 100 to 1000 nM in test [2] (MSD). For `CC(=O)Nc1cc(Nc2cc(C)nc(C34COC(C3)C4)n2)c(-c2ccc(F)cn2)cn1` [Example 752, N-(4′-((2-(2-oxabicyclo[2.1.1]hexan-4-yl)-6-methylpyrimidin-4-yl)amino)-5-fluorO[2,3′-bipyridin]-6′-yl)acetamide], the IC50 in test [1] (setting [4]) is at most 10 nM. For `COCCOc1cc(Nc2ccnc(NC(C)=O)c2)nc(C(C)(F)F)n1` [Example 809, N-(4-((2-(1,1-difluoroethyl)-6-(2-methoxyethoxy)pyrimidin-4-yl)amino)pyridin-2-yl)acetamide], in test [1] (setting [4]), the IC50 was 10 to 100 nM. `CC(=O)Nc1cc(Nc2cc(C)nc(C(C)(F)F)n2)c(-c2cc(F)ccn2)cn1` [Example 624, N-(4′-((2-(1,1-difluoroethyl)-6-methylpyrimidin-4-yl)amino)-4-fluorO[2,3′-bipyridin]-6′-yl)acetamide] registered an IC50 in test [1] (setting [5]) of at most 10 nM.

In test [1] (setting [5]), `CC(=O)Nc1cc(Nc2cc(C)nc(C(C)(F)F)n2)c(OCC2(C)CCCCO2)cn1` (stereo not drawn) [Example 435, N-(4-((2-(1,1-difluoroethyl)-6-methylpyrimidin-4-yl)amino)-5-((2-methyltetrahydro-2H-pyran-2-yl)methoxy)pyridin-2-yl)acetamide] registered an IC50 of at most 10 nM. `CC(=O)Nc1cc(Nc2cc(C)nc(C(C)(F)F)n2)c(OCCOC2CC2)cn1` [Example 316, N-(5-(2-cyclopropoxyethoxy)-4-((2-(1,1-difluoroethyl)-6-methylpyrimidin-4-yl)amino)pyridin-2-yl)acetamide] returned an IC50 in test [1] (setting [3]) of at most 10 nM.

The compound `COc1cc(C(F)(F)F)nc(Nc2cc(NC(C)=O)ncc2OC)n1` [Example 438, N-(5-methoxy-4-((4-methoxy-6-(trifluoromethyl)pyrimidin-2-yl)amino)pyridin-2-yl)acetamide] returned an IC50 in test [1] (setting [5]) of 100 to 1000 nM. Compound `COCC12CC(c3nc(C)cc(Nc4cc(NC(C)=O)ncc4-c4ccn(C)n4)n3)(CO1)C2` [Example 561, N-(4-((2-(1-(methoxymethyl)-2-oxabicyclo[2.1.1]hexan-4-yl)-6-methylpyrimidin-4-yl)amino)-5-(1-methyl-1H-pyrazol-3-yl)pyridin-2-yl)acetamide] yielded an IC50 in test [1] (setting [5]) of 10 to 100 nM. `COc1cnc(NC(C)=O)cc1Nc1cc(-c2cc(C)c3nn(C)cc3c2)nc(C(C)(F)F)n1` [Example 400, N-(4-((2-(1,1-difluoroethyl)-6-(2,7-dimethyl-2H-indazol-5-yl)pyrimidin-4-yl)amino)-5-methoxypyridin-2-yl)acetamide] gave an IC50 in test [1] (setting [5]) of at most 10 nM. On to `CC(=O)Nc1cc(Nc2cc(C)nc(C(C)(F)F)n2)c(-c2cc(CN3CCOCC3)ccn2)cn1` [Example 806, N-(4′-((2-(1,1-difluoroethyl)-6-methylpyrimidin-4-yl)amino)-4-(morpholinomethyl)-[2,3′-bipyridin]-6′-yl)acetamide], for which, in test [1] (setting [4]), the IC50 is at most 10 nM.

In the case of `COc1cnc(NC(C)=O)cc1Nc1cc(-c2cc(C)c3nc(C)cn3c2)nc(C(C)(F)F)n1` [Example 403, N-(4-((2-(1,1-difluoroethyl)-6-(2,8-dimethylimidazo[1,2-a]pyridin-6-yl)pyrimidin-4-yl)amino)-5-methoxypyridin-2-yl)acetamide], the concentration for half-maximal inhibition (IC50) in test [1] (setting [5]) was at most 10 nM.

In turn, `CC(=O)Nc1cc(Nc2cccc(C(C)(F)F)n2)c(-c2ccc3c(n2)OCC(C)(C)O3)cn1` [Example 820, N-(4-((6-(1,1-difluoroethyl)pyridin-2-yl)amino)-5-(2,2-dimethyl-2,3-dihydro-[1,4]dioxino[2,3-b]pyridin-6-yl)pyridin-2-yl)acetamide] displayed an IC50 in test [1] (setting [4]) of at most 10 nM. `CC(=O)Nc1cc(Nc2cc(C)nc(C(C)(F)F)n2)c(N2CCOCC2)cn1` [Example 727, N-(4-((2-(1,1-difluoroethyl)-6-methylpyrimidin-4-yl)amino)-5-morpholinopyridin-2-yl)acetamide] registered an IC50 in test [1] (setting [5]) of 100 to 1000 nM. `CC(=O)Nc1cc(Nc2cc(C)nc(C(C)(F)F)n2)c(N2CCCC2)cn1` [Example 726, N-(4-((2-(1,1-difluoroethyl)-6-methylpyrimidin-4-yl)amino)-5-(pyrrolidin-1-yl)pyridin-2-yl)acetamide]: in test [1] (setting [5]), the IC50 was in the range of 10 to 100 nM. In test [1] (setting [3]), `CC(=O)Nc1cc(Nc2cc(C)nc(C(C)(F)F)n2)c(OC[C@]23CC[C@](C)(CC2)CO3)cn1` [Example 347, N-(4-((2-(1,1-difluoroethyl)-6-methylpyrimidin-4-yl)amino)-5-(((1s,4s)-4-methyl-2-oxabicyclo[2.2.2]octan-1-yl)methoxy)pyridin-2-yl)acetamide] displayed an IC50 of at most 10 nM.

Values taken from patent US20260028365A1 (BIOGEN MA INC., priority 2022, published 2026).
